In ChEMBL document CHEMBL1201862, “PubChem BioAssay data set” (2004):
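A five-concentration, 48-hour dose response in 96-well plates underlies each endpoint, interpolated linearly between surrounding concentrations. The concentration for 50% growth inhibition is given as GI50.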 Calls of active or inactive are those of the source. No stated cut-off is given here; in the data, active = GI50 up to about 1.1 µM and inactive = higher.

What was measured:
Assay in all cases: NCI tumour cell line growth inhibition, 48 h
COLO 205 = test system: COLO 205
NCI-H23 = test system: NCI-H23
SW-620 = test system: SW-620
KM12 = test system: KM12
OVCAR-4 = test system: OVCAR-4
CAKI-1 = test system: CAKI-1
HCC 2998 = test system: HCC 2998
SNB-19 = test system: SNB-19
KM-20L2 = test system: KM-20L2
SF-295 = test system: SF-295
MOLT-4 = test system: MOLT-4
IGROV-1 = test system: IGROV-1
Malme-3M = test system: Malme-3M
HOP-92 = test system: HOP-92
SN12C = test system: SN12C
LXFL 529 = test system: LXFL 529
M19-MEL = test system: M19-MEL
UACC-62 = test system: UACC-62
SK-OV-3 = test system: SK-OV-3
OVCAR-5 = test system: OVCAR-5
M14 = test system: M14
XF498 = test system: XF498
DMS-114 = test system: DMS-114
U-251 = test system: U-251
RXF 393 = test system: RXF 393
SNB-78 = test system: SNB-78
CCRF-CEM = test system: CCRF-CEM
HCT-15 = test system: HCT-15
UO-31 = test system: UO-31
TK-10 = test system: TK-10
SK-MEL-28 = test system: SK-MEL-28
NCI-H522 = test system: NCI-H522
SR = test system: SR
OVCAR-8 = test system: OVCAR-8
SK-MEL-5 = test system: SK-MEL-5
SK-MEL-2 = test system: SK-MEL-2
OVCAR-3 = test system: OVCAR-3
HT-29 = test system: HT-29
DLD-1 = test system: DLD-1
K562 = test system: K562
HCT-116 = test system: HCT-116
786-0 = test system: 786-0
RPMI-8226 = test system: RPMI-8226
HL-60 = test system: HL-60
SNB-75 = test system: SNB-75
A549 = test system: A549
SF-539 = test system: SF-539
SF-268 = test system: SF-268
A498 = test system: A498
EKVX = test system: EKVX
HOP-62 = test system: HOP-62

## COc1cc(/C=C(\NC(=O)c2ccccc2)c2nc3cc([N+](=O)[O-])ccc3[nH]2)cc(OC)c1OC
COLO 205
  GI50: > 100 µM (inactive)
NCI-H23
  GI50: > 100 µM (inactive)
SW-620
  GI50: 76.7 µM (inactive)
KM12
  GI50: 84.5 µM (inactive)
OVCAR-4
  GI50: 38.5 µM (inactive)
CAKI-1
  GI50: 68.5 µM (inactive)
HCC 2998
  GI50: > 100 µM (inactive)
SNB-19
  GI50: > 100 µM (inactive)
KM-20L2
  GI50: 78.7 µM (inactive)
SF-295
  GI50: > 100 µM (inactive)
MOLT-4
  GI50: 29 µM (inactive)
IGROV-1
  GI50: > 100 µM (inactive)
Malme-3M
  GI50: > 100 µM (inactive)
HOP-92
  GI50: 57 µM (inactive)
SN12C
  GI50: > 100 µM (inactive)
LXFL 529
  GI50: 35.4 µM (inactive)
M19-MEL
  GI50: > 100 µM (inactive)
UACC-62
  GI50: > 100 µM (inactive)
SK-OV-3
  GI50: 78.3 µM (inactive)
OVCAR-5
  GI50: > 100 µM (inactive)
M14
  GI50: > 100 µM (inactive)
XF498
  GI50: > 100 µM (inactive)
DMS-114
  GI50: 57.9 µM (inactive)
U-251
  GI50: > 100 µM (inactive)
RXF 393
  GI50: > 100 µM (inactive)
SNB-78
  GI50: > 100 µM (inactive)
CCRF-CEM
  GI50: 35.9 µM (inactive)
HCT-15
  GI50: 40 µM
UO-31
  GI50: 23.1 µM (inactive)
TK-10
  GI50: > 100 µM (inactive)
SK-MEL-28
  GI50: > 100 µM (inactive)
NCI-H522
  GI50: 30.2 µM (inactive)
SR
  GI50: 42.2 µM (inactive)
OVCAR-8
  GI50: 96.4 µM (inactive)
SK-MEL-5
  GI50: 96.6 µM (inactive)
SK-MEL-2
  GI50: > 100 µM (inactive)
OVCAR-3
  GI50: > 100 µM (inactive)
HT-29
  GI50: > 100 µM (inactive)
DLD-1
  GI50: 57.3 µM (inactive)
K562
  GI50: 34.3 µM (inactive)

## COc1cc(Cn2c3ccccc3c3cc(C)cc(OC)c32)cc2c1[nH]c1ccccc12
COLO 205
  GI50: > 25 µM (inactive)
HCC 2998
  GI50: > 25 µM (inactive)
SNB-19
  GI50: > 25 µM (inactive)
IGROV-1
  GI50: > 25 µM (inactive)
Malme-3M
  GI50: > 25 µM (inactive)
HCT-116
  GI50: > 25 µM (inactive)
SN12C
  GI50: > 25 µM (inactive)
M19-MEL
  GI50: > 25 µM (inactive)
786-0
  GI50: > 25 µM (inactive)
SK-OV-3
  GI50: > 25 µM (inactive)
OVCAR-5
  GI50: > 25 µM (inactive)
DMS-114
  GI50: 20 µM (inactive)
U-251
  GI50: > 25 µM (inactive)
RPMI-8226
  GI50: > 25 µM (inactive)
SNB-78
  GI50: 23.1 µM (inactive)
UO-31
  GI50: > 25 µM (inactive)
TK-10
  GI50: > 25 µM (inactive)
SK-MEL-28
  GI50: > 25 µM (inactive)
OVCAR-8
  GI50: 10.5 µM (inactive)
SK-MEL-5
  GI50: > 25 µM (inactive)
SK-MEL-2
  GI50: > 25 µM (inactive)
OVCAR-3
  GI50: 10.2 µM (inactive)
DLD-1
  GI50: > 25 µM (inactive)

## COC(=O)C1(C)NCCc2c1[nH]c1ccccc21 (configuration not stated)
COLO 205
  GI50: > 100 µM (inactive)
NCI-H23
  GI50: > 100 µM (inactive)
SW-620
  GI50: > 100 µM (inactive)
KM12
  GI50: > 100 µM (inactive)
OVCAR-4
  GI50: > 100 µM (inactive)
CAKI-1
  GI50: > 100 µM (inactive)
HCC 2998
  GI50: > 100 µM (inactive)
SNB-19
  GI50: > 100 µM (inactive)
KM-20L2
  GI50: > 100 µM (inactive)
SF-295
  GI50: > 100 µM (inactive)
MOLT-4
  GI50: > 100 µM (inactive)
IGROV-1
  GI50: > 100 µM (inactive)
Malme-3M
  GI50: > 100 µM (inactive)
HCT-116
  GI50: > 100 µM (inactive)
HOP-92
  GI50: > 100 µM (inactive)
HL-60
  GI50: > 10 µM (inactive)
SN12C
  GI50: > 100 µM (inactive)
LXFL 529
  GI50: > 100 µM (inactive)
M19-MEL
  GI50: > 100 µM (inactive)
UACC-62
  GI50: > 100 µM (inactive)
786-0
  GI50: > 100 µM (inactive)
SK-OV-3
  GI50: > 100 µM (inactive)
OVCAR-5
  GI50: > 100 µM (inactive)
M14
  GI50: > 100 µM (inactive)
DMS-114
  GI50: > 100 µM (inactive)
U-251
  GI50: > 100 µM (inactive)
RXF 393
  GI50: > 100 µM (inactive)
RPMI-8226
  GI50: > 100 µM (inactive)
SNB-75
  GI50: 16.8 µM (inactive)
CCRF-CEM
  GI50: > 100 µM (inactive)
A549
  GI50: > 100 µM (inactive)
HCT-15
  GI50: > 100 µM
UO-31
  GI50: > 100 µM (inactive)
TK-10
  GI50: > 100 µM (inactive)
SK-MEL-28
  GI50: > 100 µM (inactive)
NCI-H522
  GI50: > 100 µM (inactive)
SR
  GI50: > 100 µM (inactive)
OVCAR-8
  GI50: > 100 µM (inactive)
SK-MEL-5
  GI50: > 100 µM (inactive)
SK-MEL-2
  GI50: > 100 µM (inactive)
SF-539
  GI50: > 100 µM (inactive)
SF-268
  GI50: > 100 µM (inactive)
OVCAR-3
  GI50: > 100 µM (inactive)
A498
  GI50: > 100 µM (inactive)
HT-29
  GI50: > 100 µM (inactive)
DLD-1
  GI50: > 100 µM (inactive)
EKVX
  GI50: > 100 µM (inactive)
K562
  GI50: > 100 µM (inactive)
HOP-62
  GI50: > 100 µM (inactive)
